This is an account of results in ChEMBL document CHEMBL1137891, “5-Carboxamido-1,3,2-dioxaphosphorinanes, potent inhibitors of MTP” (Bioorg Med Chem Lett, 2004).

Experiment [1] addresses T1, Microsomal triglyceride transfer protein large subunit (Homo sapiens, UniProt P55157).
T1 sequence (P55157 whole entry): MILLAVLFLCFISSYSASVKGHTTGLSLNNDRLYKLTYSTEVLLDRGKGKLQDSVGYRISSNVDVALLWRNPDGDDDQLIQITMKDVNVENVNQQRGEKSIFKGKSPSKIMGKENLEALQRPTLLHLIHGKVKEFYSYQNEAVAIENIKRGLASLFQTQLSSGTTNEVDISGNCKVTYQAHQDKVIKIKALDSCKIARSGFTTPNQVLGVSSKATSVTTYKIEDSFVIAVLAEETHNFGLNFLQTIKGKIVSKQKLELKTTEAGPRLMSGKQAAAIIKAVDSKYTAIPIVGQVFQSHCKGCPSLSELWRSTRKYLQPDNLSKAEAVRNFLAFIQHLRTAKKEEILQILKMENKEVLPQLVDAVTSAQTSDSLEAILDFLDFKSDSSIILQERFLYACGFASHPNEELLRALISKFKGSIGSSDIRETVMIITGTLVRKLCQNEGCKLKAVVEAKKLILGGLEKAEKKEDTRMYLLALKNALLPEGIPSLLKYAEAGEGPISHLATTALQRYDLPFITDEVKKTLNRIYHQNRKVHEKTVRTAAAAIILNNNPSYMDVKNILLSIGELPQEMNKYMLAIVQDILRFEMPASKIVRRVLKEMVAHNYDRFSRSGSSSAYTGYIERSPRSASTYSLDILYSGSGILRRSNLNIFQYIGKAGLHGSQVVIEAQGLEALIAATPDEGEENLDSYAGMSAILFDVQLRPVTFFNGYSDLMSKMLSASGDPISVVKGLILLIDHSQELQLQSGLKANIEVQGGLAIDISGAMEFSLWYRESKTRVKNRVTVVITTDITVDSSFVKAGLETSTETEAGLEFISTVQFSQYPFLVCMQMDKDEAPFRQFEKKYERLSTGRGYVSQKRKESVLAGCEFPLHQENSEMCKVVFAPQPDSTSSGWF
In words: In vitro inhibitory concentration against human Microsomal triglyceride transfer protein. The experiment is classed as functional.

The test system of experiment [2] is Cricetinae gen. sp. As to the kind of experiment: Concentration required for change in serum HDL cholesterol in male hamster after 3-day treatment. The experiment is classed as functional, Cricetulus griseus. The following applies: 72 h.
The test system of another experiment is HepG2. As to the kind of experiment: inhibitory activity against secretion of lipoproteins apoB and apoA1 from human HepG2 cell lines. It counts as functional. Conditions: read-out: ED50 (the source's name).
For the next experiment, the species on record is Mesocricetus auratus. As to the kind of experiment: Percentage change in serum HDL cholesterol in male hamster after 3-day treatment at 30 mpk.
In experiment [3] the test system is Cricetinae gen. sp. In words: Percentage change in serum HDL cholesterol in male hamster after 3-day treatment at 20 mpk. It counts as functional, Cricetulus griseus.
In experiment [4] the test system is Cricetinae gen. sp. As to the kind of experiment: Percentage change in serum HDL cholesterol in male hamster after 3-day treatment at 15 mpk. It counts as functional.
The target of experiment [5] is T1, Microsomal triglyceride transfer protein large subunit. In words: In vitro inhibition concentration required against triglyceride transfer of human Microsomal triglyceride transfer protein. The experiment is classed as functional. Conditions: read-out: I50.

As usually defined, the ED50 is the dose that gives a 50% effect, or the effect in half of the subjects. Molecule `O=C(NC1COP(=O)(CCCCC2(C(=O)NCC(F)(F)F)c3ccccc3-c3ccccc32)OC1)c1ccccc1-c1ccc(C(F)(F)F)cc1` (stereo in doubt; 3a) returned an IC50 in experiment [1] of 7 nM. Also, the median effective dose (ED50) in the experiment on Cricetinae gen. sp. [2] amounted to 3.3 mg/kg. Also, in the experiment on HepG2, the EC50 was found to be 0.65 nM. The Activity in the experiment filed under Mesocricetus auratus is -73%.
For `O=C(NC1COP(=O)(CCCCC2(C(=O)NCC(F)(F)F)c3ccccc3-c3ccccc32)OC1)c1ccccc1-c1ccc(C(F)(F)F)cc1` (cis isomer), in the experiment with Cricetinae gen. sp. [3], the Activity is -4%. This molecule returned an IC50 in experiment [1] of 44 nM. Moreover, the EC50 with HepG2 came out at 18 nM.
On to `O=C(NC1COP(=O)(CCCCC2(C(=O)NCC(F)(F)F)c3ccccc3-c3ccccc32)OC1)OCc1ccccc1` (stereo not drawn), for which the IC50 in experiment [1] turned out to be 14 nM. Further, the EC50 with HepG2 (Homo sapiens, HepG2) stood at 40 nM.
Take `O=C(NC1CCN(CCCCC2(C(=O)NCC(F)(F)F)c3ccccc3-c3ccccc32)CC1)c1ccccc1-c1ccc(C(F)(F)F)cc1` [LOMITAPIDE]: it took a dose of 2 mg/kg to reach the 50% effect level in the experiment on Cricetinae gen. sp. [2] (ED50). Moreover, in the experiment on HepG2 (Homo sapiens, HepG2), the EC50 was determined as 0.8 nM. For the same molecule, the Activity in the experiment listed under Mesocricetus auratus is -92%.
As for `O=C(N[C@H]1CC[N@+]([O-])(CCCCC2(C(=O)NCC(F)(F)F)c3ccccc3-c3ccccc32)CC1)c1ccccc1-c1ccc(C(F)(F)F)cc1`, in the experiment on Cricetinae gen. sp. [4], the Activity was -77%. Also, the IC50 in experiment [1] stood at 5 nM. Further, the EC50 with HepG2 (Homo sapiens, HepG2) worked out at 0.9 nM.
For `O=C(NC1COP(=O)(CCCCC2(C(=O)NCC(F)(F)F)c3ccccc3-c3ccccc32)OC1)c1ccccc1-c1nc2ccccc2o1` (trans isomer), in experiment [1], the IC50 was found to be 3 nM. Further, the Activity in the experiment filed under Mesocricetus auratus is reported as -13%.
Take `CCCCOP(=O)(CCCCC1(C(=O)NCC(F)(F)F)c2ccccc2-c2ccccc21)OCCCC`: the IC50 in experiment [1] amounted to 22 nM. Further, in the experiment on HepG2 (Homo sapiens, HepG2), the EC50 was 7 nM. For the same molecule, in the experiment filed under Mesocricetus auratus, the Activity is recorded as -5%.
Consider `O=C(NC1COP(=O)(CCCCC2(C(=O)NCC(F)(F)F)c3ccccc3-c3ccccc32)OC1)c1ccccc1` (trans isomer), for which the Activity in the experiment with Cricetinae gen. sp. [4] is reported as -12%. The molecule further displayed an IC50 in experiment [1] of 11 nM. The EC50 in the experiment with HepG2 (Homo sapiens, HepG2) came out at 23 nM.
On to `O=C(NC1COP(=O)(CCCCC2(C(=O)NCC(F)(F)F)c3ccccc3-c3ccccc32)OC1)OCc1ccccc1` (cis isomer), for which, in experiment [5], the IC50 came out at 210 nM.
Regarding `O=C(NC1COP(=O)(CCCCC2(C(=O)NCC(F)(F)F)c3ccccc3-c3ccccc32)OC1)c1ccccc1N1CCOCC1` (stereo not drawn), the Activity in the experiment with Cricetinae gen. sp. [4] is recorded as -3%. In experiment [1], this molecule came in with an IC50 of 12 nM.
Regarding `O=C(NC1COP(=O)(CCCCC2(C(=O)NCC(F)(F)F)c3ccccc3-c3ccccc32)OC1)c1ccccc1-c1nc2ccccc2s1` (stereo not drawn), the Activity with Cricetinae gen. sp. [4] was -76%. The molecule further displayed an IC50 in experiment [1] of 9 nM. Moreover, the median effective dose (ED50) in the experiment with Cricetinae gen. sp. [2] stood at 4 mg/kg. The EC50 with HepG2 (Homo sapiens, HepG2) was determined as 7.5 nM.
On to `O=C(NC1COP(=O)(CCCCC2(C(=O)NCC(F)(F)F)c3ccccc3-c3ccccc32)OC1)c1ccccc1-c1ccccn1` (trans isomer), for which the Activity in the experiment with Cricetinae gen. sp. [4] is on record as -19%. For the same molecule, the IC50 in experiment [1] is under 10 nM. Also, the EC50 in the experiment on HepG2 (Homo sapiens, HepG2) amounted to 79 nM.
